Our source for the IC50 values is patent publication US10577363B2, “Substituted piperidine compounds” (EPIZYME, INC., priority 2014, dated 2020).

Experiment [1] has as its target T1, SMYD3 (Homo sapiens (Human), UniProt Q9H7B4). As to the kind of experiment: SMYD3 cell assay (Trimethyl-MEKK2 In-Cell Western in 293T/17 cells). Format: cell-based. The note with it: average of n = 1 to n = 50; read-out: SMYD3 Cell IC50. The method in brief:
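In-Cell Western ratio of trimethyl-Lys260 MEKK2 to anti-flag signal; percent inhibition from DMSO and maximum-inhibition controls, IC50 by non-linear regression, triplicates.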

The target in experiment [2] is T1, SMYD3. Kind of experiment: SMYD3 biochemical assay (SPA, 3H-SAM methylation of MEKK2 protein substrate). The conditions noted are these: average of n = 1 to n = 50; read-out: SMYD3 Biochem IC50. The method in brief:
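Tritium incorporation into GST-MEKK2 is counted by scintillation proximity after citric acid bead capture. Native human SMYD3 is preincubated with test compound for 30 min at room temperature at pH 8.0 (Tris-Cl, TCEP, BSG, Tween 20) before 3H-SAM and substrate are added; cold SAM at 100 uM final stops turnover.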

T1 sequence (Q9H7B4 whole entry): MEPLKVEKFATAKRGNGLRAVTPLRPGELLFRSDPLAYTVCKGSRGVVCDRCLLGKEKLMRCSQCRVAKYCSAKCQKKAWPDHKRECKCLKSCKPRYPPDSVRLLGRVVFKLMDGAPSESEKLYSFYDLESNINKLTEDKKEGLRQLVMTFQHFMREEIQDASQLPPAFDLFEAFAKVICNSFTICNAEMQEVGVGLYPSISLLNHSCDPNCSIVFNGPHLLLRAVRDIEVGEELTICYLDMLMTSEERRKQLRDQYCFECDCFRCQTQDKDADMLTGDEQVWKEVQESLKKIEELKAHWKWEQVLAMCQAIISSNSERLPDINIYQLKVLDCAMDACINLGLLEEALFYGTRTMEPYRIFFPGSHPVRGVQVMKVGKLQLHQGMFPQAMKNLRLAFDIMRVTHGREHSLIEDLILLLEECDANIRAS

One may read the IC50 as the concentration that inhibits the measured activity by half. Take `C[C@H]1CN(S(=O)(=O)N(C)C2CCN(Cc3ccccc3)CC2)CC[C@H]1NC(=O)c1cc(C2CC2)on1` [compound 719, N-((3S,4R)-1-(N-(1-benzylpiperidin-4-yl)-N-methylsulfamoyl)-3-methylpiperidin-4-yl)-5-cyclopropylisoxazole-3-carboxamide]: the half-inhibitory concentration (IC50) in experiment [1] stood at 1210 nM; in experiment [2], 320 nM.
For `COCCN1CCC(CS(=O)(=O)N2CC[C@H](NC(=O)c3cc(C4CC4)on3)C[C@@H]2Cc2ccccc2)CC1` [compound 720, N-((2S,4S)-2-benzyl-1-(((1-(2-methoxyethyl)piperidin-4-yl)methyl)sulfonyl)piperidin-4-yl)-5-cyclopropylisoxazole-3-carboxamide], the IC50 in experiment [1] came out at 2430 nM; in experiment [2] it was 322 nM.
For `O=C(N[C@@H]1C[C@H]2CC[C@@H](C1)N2S(=O)(=O)CC1CCCNC1)c1cc(C2CC2)on1` (stereo partly drawn) [compound 721, 5-cyclopropyl-N-((1R,3s,5S)-8-((piperidin-3-ylmethyl)sulfonyl)-8-azabicyclo[3.2.1]octan-3-yl)isoxazole-3-carboxamide], in that order: 1830 nM and 322 nM.
As to `O=C(N[C@H]1C[C@H]2CC[C@@H](C1)N2S(=O)(=O)N1CCNC(c2ccccc2)C1)c1cc(C2CC2)on1` (stereo partly drawn) [compound 722, 5-cyclopropyl-N-((1R,3r,5S)-8-((3-phenylpiperazin-1-yl)sulfonyl)-8-azabicyclo[3.2.1]octan-3-yl)isoxazole-3-carboxamide], the values for the IC50 in experiment [1] and in experiment [2] were 1520 nM and 326 nM, respectively.
The matching figures for `O=C(N[C@@H]1CCN(S(=O)(=O)CC2CCNCC2)[C@@H](Cc2ccccc2)C1)c1cc(C2CC2)on1` [compound 723, N-((2S,4R)-2-benzyl-1-((piperidin-4-ylmethyl)sulfonyl)piperidin-4-yl)-5-cyclopropylisoxazole-3-carboxamide]: 2730 nM and 326 nM.
`CN(C1CCNCC1)S(=O)(=O)N1[C@@H]2CC[C@H]1C[C@H](NC(=O)c1cc(C3CC3)on1)C2` [compound 724, 5-cyclopropyl-N-((1R,3s,5S)-8-(N-methyl-N-(piperidin-4-yl)sulfamoyl)-8-azabicyclo[3.2.1]octan-3-yl)isoxazole-3-carboxamide]: the IC50 in experiment [1] was 2440 nM; in experiment [2], 333 nM.
`O=C(N[C@H]1CCN(S(=O)(=O)C2CCCNC2)[C@@H](Cc2ccccc2)C1)c1cc(C2CC2)on1` (stereo partly drawn) [compound 725, N-((2S,4S)-2-benzyl-1-(piperidin-3-ylsulfonyl)piperidin-4-yl)-5-cyclopropylisoxazole-3-carboxamide]: the IC50 came to 3070 nM in experiment [1] and 340 nM in experiment [2].
Turning to `O=C(N[C@H]1C[C@H]2CC[C@@H](C1)N2S(=O)(=O)CCN1CCC(OCc2ccccc2)C1)c1cc(C2CC2)on1` (stereo partly drawn) [compound 726, N-((1R,3r,5S)-8-((2-(3-(benzyloxy)pyrrolidin-1-yl)ethyl)sulfonyl)-8-azabicyclo[3.2.1]octan-3-yl)-5-cyclopropylisoxazole-3-carboxamide], the IC50 in experiment [1] came out at 2470 nM; in experiment [2], 360 nM.
Regarding `CNC/C=C/S(=O)(=O)N1CCC(NC(=O)c2cc(C3CC3)on2)CC1` [compound 727, (E)-5-cyclopropyl-N-(1-((3-(methylamino)prop-1-en-1-yl)sulfonyl)piperidin-4-yl)isoxazole-3-carboxamide], the IC50 was found to be 1390 nM in experiment [1] and 363 nM in experiment [2].
For `CC(C)[C@@H]1CN(S(=O)(=O)N2CC[C@H](NC(=O)c3cc(C4CC4)on3)C[C@@H]2C)CCN1C` [compound 728, 5-cyclopropyl-N-((2S,4S)-1-(((R)-3-isopropyl-4-methylpiperazin-1-yl)sulfonyl)-2-methylpiperidin-4-yl)isoxazole-3-carboxamide], in that order: 1370 nM and 380 nM.
Take `O=C(N[C@@H]1C[C@H]2CC[C@@H](C1)N2S(=O)(=O)C1CCCNC1)c1cc(C2CC2)on1` (stereo partly drawn) [compound 729, 5-cyclopropyl-N-((1R,3s,5S)-8-(piperidin-3-ylsulfonyl)-8-azabicyclo[3.2.1]octan-3-yl)isoxazole-3-carboxamide]: the IC50 came out at 2530 nM in experiment [1] and 411 nM in experiment [2].
For `Nc1cc(S(=O)(=O)N2[C@@H]3CCC[C@H]2C[C@@H](NC(=O)c2cc(C4CC4)on2)C3)ccn1` [compound 730, N-((1R,3r,5S)-9-((2-aminopyridin-4-yl)sulfonyl)-9-azabicyclo[3.3.1]nonan-3-yl)-5-cyclopropylisoxazole-3-carboxamide], in that order: 1320 nM and 413 nM.
`C[C@H]1CN(S(=O)(=O)N2CCN(C)CC2)[C@@H](C)C[C@H]1NC(=O)c1cc(C2CC2)on1` [compound 731, 5-cyclopropyl-N-((2S,4R,5S)-2,5-dimethyl-1-((4-methylpiperazin-1-yl)sulfonyl)piperidin-4-yl)isoxazole-3-carboxamide]: the IC50 amounted to 1330 nM in experiment [1] and 418 nM in experiment [2].
The matching figures for `C[C@H]1CN(S(=O)(=O)CCN2CCCC2)[C@@H](C)C[C@H]1NC(=O)c1cc(C2CC2)on1` [compound 732, 5-cyclopropyl-N-((2S,4R,5S)-2,5-dimethyl-1-((2-(pyrrolidin-1-yl)ethyl)sulfonyl)piperidin-4-yl)isoxazole-3-carboxamide]: 1460 nM and 431 nM.
The matching figures for `O=C(NC1C[C@H]2CCC[C@H](C1)N2S(=O)(=O)c1ccc(Cl)cn1)c1cc(C2CC2)on1` (stereo partly drawn) [compound 733, N-((1R,5R)-9-((5-chloropyridin-2-yl)sulfonyl)-9-azabicyclo[3.3.1]nonan-3-yl)-5-cyclopropylisoxazole-3-carboxamide]: 1960 nM and 442 nM.
On to `NCCCNc1ncccc1S(=O)(=O)N1[C@@H]2CCC[C@H]1C[C@@H](NC(=O)c1cc(C3CC3)on1)C2` [compound 734, N-((1R,3r,5S)-9-((2-((3-aminopropyl)amino)pyridin-3-yl)sulfonyl)-9-azabicyclo[3.3.1]nonan-3-yl)-5-cyclopropylisoxazole-3-carboxamide], for which the IC50 in experiment [1] was 4170 nM; in experiment [2], 442 nM.
With `C[C@H]1CN(S(=O)(=O)N2CC[C@H](NC(=O)c3cc(C4CC4)on3)C[C@@H]2C)CCN1C` [compound 735, 5-cyclopropyl-N-((2S,4S)-1-(((S)-3,4-dimethylpiperazin-1-yl)sulfonyl)-2-methylpiperidin-4-yl)isoxazole-3-carboxamide], the results for the IC50 in experiment [1] and in experiment [2] were 1360 nM and 446 nM, respectively.
Consider `C[C@H]1C[C@@H](NC(=O)c2cc(C3CC3)on2)CCN1S(=O)(=O)N1CCNC(Cc2ccccc2)C1` (stereo partly drawn) [compound 736, N-((2S,4S)-1-((3-benzylpiperazin-1-yl)sulfonyl)-2-methylpiperidin-4-yl)-5-cyclopropylisoxazole-3-carboxamide], for which the IC50 was found to be 2030 nM in experiment [1] and 452 nM in experiment [2].
Turning to `C[C@H]1C[C@@H](NC(=O)c2cc(C3CC3)on2)CCN1S(=O)(=O)N1CCNCC1Cc1ccccc1` (stereo partly drawn) [compound 737, N-((2S,4S)-1-((2-benzylpiperazin-1-yl)sulfonyl)-2-methylpiperidin-4-yl)-5-cyclopropylisoxazole-3-carboxamide], the IC50 in experiment [1] amounted to 6940 nM; in experiment [2], 469 nM.
